{"source": "paper PMC12019328", "about": "“Discovery of an ApoE4-targeted small-molecule SirT1 enhancer for the treatment of Alzheimer’s disease” (Scientific Reports, 2025)", "key": {"NFYb mRNA": {"system": "NFYb mRNA", "test": "Hippocampal NFYb mRNA in ApoE4-TR:5xFAD mice", "format": "in vivo", "settings": "20 mg/Kg BID, 56 days, vs vehicle", "description": "The active (-) enantiomer, DDL-218, underwent efficacy testing in ApoE4-TR:5xFAD mice[27] that were 6-7.5 months old at the start of treatment. ApoE4-TR:5xFAD male and female mice received either 20 mg/Kg DDL-218 BID (~ 8- to10-hour interval; total daily dose of 40 mkd) on weekdays and a single 40 mg/Kg dose on weekends (n = 12) or vehicle-only (n = 11); 8 C57BL/6 mice received vehicle-only as behavioral controls. Dosing was by the oral route and by oral feeding using a pipette as previously described, not gavage, as it is safer for repeated oral dosing than gavage. The dose of 20 mg/kg BID (40 mkd) was selected based on findings from PK analysis and was the highest feasible in the formulation used for oral feeding (compound is first solubilized in water, then mixed strawberry syrup diluted in water, for a final vehicle that is 25% syrup and 75% water). […]\nTotal RNA was isolated from cells or brain tissue (Qiagen RNEasy kit). Total RNA (0.5–1.0 µg) mRNA was then converted to cDNA (SuperScript™ III First-Strand Synthesis SuperMix kit; Thermo Fisher), and gene mRNA levels were measured using a gene-specific qRT-PCR Taqman assays (Thermo Fisher). Gene mRNA levels were normalized to GAPDH mRNA levels measured either in the same cDNA sample or in the same qPCR reaction using multiplexing of gene-of-interest/VIC and GAPDH/FAM, normalized by the delta-delta-Ct method."}, "SirT1 protein": {"system": "SirT1 protein", "test": "SirT1 protein levels in hippocampi of ApoE4-TR:5xFAD mice", "format": "in vivo", "settings": "56 days, vs vehicle, not statistically significant", "description": "(§1) The active (-) enantiomer, DDL-218, underwent efficacy testing in ApoE4-TR:5xFAD mice[27] that were 6-7.5 months old at the start of treatment. ApoE4-TR:5xFAD male and female mice received either 20 mg/Kg DDL-218 BID (~ 8- to10-hour interval; total daily dose of 40 mkd) on weekdays and a single 40 mg/Kg dose on weekends (n = 12) or vehicle-only (n = 11); 8 C57BL/6 mice received vehicle-only as behavioral controls. Dosing was by the oral route and by oral feeding using a pipette as previously described, not gavage, as it is safer for repeated oral dosing than gavage. The dose of 20 mg/kg BID (40 mkd) was selected based on findings from PK analysis and was the highest feasible in the formulation used for oral feeding (compound is first solubilized in water, then mixed strawberry syrup diluted in water, for a final vehicle that is 25% syrup and 75% water). The final concentration of DDL-218 was chosen to deliver 20 mg/Kg in a volume of 10–20 µL (adjusted to the weight of each mouse). Mice were treated for 56 days (8 weeks); in week 7, mice underwent Barnes maze testing[29] as described below.\nOn Day 56, mice were euthanized 2 h after the a.m. dose by pentobarbital over-anesthesia and cardiac puncture for the collection of blood in EDTA tubes on ice for the isolation of plasma by centrifugation at 3,000 x g for 10 min at 4 °C. Mice were perfused with saline at 5 ml/min. […]"}, "SirT1 promoter": {"system": "SirT1 promoter", "test": "ChIP analysis of SirT1 promoter occupancy in brain tissue of ApoE4-TR:5xFAD mice", "format": "in vivo", "settings": "vs Veh", "description": "17-371) following manufacturer's instructions. Brain was frozen to -80C, then powdered on dry\nice and split for either RNA analysis or for the ChIP assay, approximately ~100mg powderized\ntissue was fixed in formaldehyde. For cultured cells in vitro, cells were fixed in each well and\nharvested by scraping. Samples were sonicated to break chromatin into 200-1000bp fragments\n(according to previously optimized conditions), using a Epishear programmable sonicator (Active\nMotif), and aliquots were subjected to immunoprecipitation with antibodies against either apoE4\n(Novus), RNA Polymerase (supplied in the Ez-ChIP kit), or mouse IgG (isotype matched).\nImmunoprecipitated chromatin was subjected to conditions that reversed the cross-links, and\nDNA was purified. The immunoprecipitated DNA was measured for the level of immuno-captured\nSirT1 gene promoter sequence using qPCR with PCR primers that bind flanking the SirT1 CLEAR\nsequence. PCR produced an amplicon of 125bp with the CLEAR site near one end, the CLEAR\nsequence is bold underlined in the following 125bp PCR amplicon:\nPCR amplification Ct values for apoE4 and RNAP were normalized to the levels obtained for\nIgG and further normalized to the level of input DNA. This level of immuno-captured DNA indicates\nthe level of apoE4 or RNAP occupancy of CLEAR site region of the SirT1 gene promoter.\nFigure S7. SirT1 promoter binding by RNA polymerase and ApoE4. […]"}, "[1]": {"test": "Observable adverse effects in 56-day oral treatment of AD model mice", "format": "in vivo", "settings": "56-day oral treatment of ApoE4-expressing AD model mice", "description": "as §1"}, "[2]": {"target": "hERG (human Ether-a-go-go-Related Gene) (Homo sapiens, UniProt Q12809)", "sequence (Q12809 whole entry)": "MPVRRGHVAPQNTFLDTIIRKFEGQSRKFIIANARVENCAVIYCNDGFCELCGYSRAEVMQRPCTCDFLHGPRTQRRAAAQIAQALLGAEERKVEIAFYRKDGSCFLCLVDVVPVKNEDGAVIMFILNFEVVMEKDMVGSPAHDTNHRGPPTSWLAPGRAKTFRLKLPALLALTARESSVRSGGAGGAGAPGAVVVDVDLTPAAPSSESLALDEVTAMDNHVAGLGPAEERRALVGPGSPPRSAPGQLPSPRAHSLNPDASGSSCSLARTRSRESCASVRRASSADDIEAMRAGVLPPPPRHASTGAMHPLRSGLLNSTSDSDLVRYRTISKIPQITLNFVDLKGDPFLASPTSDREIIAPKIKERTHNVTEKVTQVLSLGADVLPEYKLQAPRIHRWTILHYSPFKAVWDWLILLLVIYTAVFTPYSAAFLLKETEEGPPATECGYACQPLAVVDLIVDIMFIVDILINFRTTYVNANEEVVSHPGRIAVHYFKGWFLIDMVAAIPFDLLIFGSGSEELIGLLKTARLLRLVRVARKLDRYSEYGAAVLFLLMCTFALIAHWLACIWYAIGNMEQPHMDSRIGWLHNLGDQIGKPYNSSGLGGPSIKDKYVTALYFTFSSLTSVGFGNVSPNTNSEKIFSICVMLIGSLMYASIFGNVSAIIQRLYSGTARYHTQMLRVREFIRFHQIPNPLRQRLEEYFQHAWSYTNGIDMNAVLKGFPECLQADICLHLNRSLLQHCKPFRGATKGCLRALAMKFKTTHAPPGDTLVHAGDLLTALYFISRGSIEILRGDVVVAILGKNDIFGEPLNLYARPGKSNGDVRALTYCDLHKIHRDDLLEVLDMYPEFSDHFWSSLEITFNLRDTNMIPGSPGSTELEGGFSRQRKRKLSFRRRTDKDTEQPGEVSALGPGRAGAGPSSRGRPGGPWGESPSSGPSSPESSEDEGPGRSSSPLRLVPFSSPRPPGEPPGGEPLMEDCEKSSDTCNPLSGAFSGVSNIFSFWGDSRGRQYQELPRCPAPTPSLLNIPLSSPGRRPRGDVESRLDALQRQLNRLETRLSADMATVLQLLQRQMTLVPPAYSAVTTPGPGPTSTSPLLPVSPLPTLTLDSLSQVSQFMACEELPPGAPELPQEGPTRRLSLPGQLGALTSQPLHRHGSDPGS", "test": "hERG"}}, "note": "pEC50: −log10 of the molar value."}
{"smiles": "CC(N)C(=O)OC(C)(C)Cc1ccncc1", "note": "(stereo not drawn) [DDL-218]", "values": [{"measurement": "hippocampal NFYb mRNA", "setting": "NFYb mRNA", "result": "significantly increased"}, {"measurement": "increase of mean SirT1 protein levels in hippocampi", "setting": "SirT1 protein", "result": "~ 20%"}, {"measurement": "ApoE4 binding to the SirT1 promoter", "setting": "SirT1 promoter", "result": "lower, but the effect was not significant"}, {"measurement": "RNAP binding to the SirT1 promoter", "setting": "SirT1 promoter", "result": "significantly increased"}, {"measurement": "observable adverse effects", "setting": "[1]", "result": "not associated with any observable adverse effects"}, {"measurement": "pEC50", "setting": "[2]", "result": "< 5.00"}]}
